Experimental data as given in paper PMC3020970, “K70Q Adds High-Level Tenofovir Resistance to “Q151M Complex” HIV Reverse Transcriptase through the Enhanced Discrimination Mechanism” (PLoS ONE, 2011).
Where a name gives a salt, the structure may show the parent alone.

How the values were obtained:
Assay type in all cases: cell-based
[1] = tested on: HIV-1 clinical isolate 2 (Q151Mc + K70Q); test: Single-cycle drug susceptibility assay (MAGIC-5 cells), clinical isolate 2; details: Human immunodeficiency virus 1; clinical isolate 2, MAGIC-5 cells
Method: (§1) HIV was isolated from fresh plasma immediately after collection of clinical samples from study participants at the outpatient clinic of the AIDS Clinical Center (ACC), International Medical Center of Japan. The Institutional Review Board approved this study (IMCJ-H13-80) and a written consent was obtained from all participants.
(§2) Susceptibilities to various RT inhibitors were determined using the MAGIC-5 cells which are HeLa cells stably transfected with a β-galactosidase gene under the control of an HIV long terminal repeat promoter, and with vectors that express the CD4 receptor and the CCR5 co-receptor under the control of the CMV promoter as described previously. Briefly, MAGIC-5 cells were infected with diluted virus stock (100 blue forming units) in the presence of increasing concentrations of RT inhibitors, cultured for 48 h, fixed, and stained with X-Gal (5-bromo-4-chloro-3-indolyl-β-D-galacto-pyranoside). The stained cells were counted under a light microscope.

HIV-1 NL4-3 strain (WT) = test: microbe, parasite or virus in culture; details: Human immunodeficiency virus 1, NL43; WT, MAGIC-5 cells, Table S1; read-out: EC50
Method: as §2

[2] = tested on: HIV-1 clinical isolate 1 (Q151Mc-containing); test: Single-cycle drug susceptibility assay (MAGIC-5 cells), clinical isolate 1; details: Human immunodeficiency virus 1; clinical isolate 1, MAGIC-5 cells
Method: as §1, §2

HIV-1 WT = test: Single-cycle drug susceptibility assay (MAGIC-5 cells), recombinant WT clone; details: Human immunodeficiency virus 1, Table S2
Method: (§3) The NL4-3-based molecular clone was constructed by replacing the pol-coding region with the HIV-1 BH10 strain. […] Each molecular clone was transfected into COS-7 cells. Cells were grown for 48 h, and culture supernatants were harvested and stored at −80°C until use.
as §2

HIV-1 Q151Mc/K70E = test: Single-cycle drug susceptibility assay (MAGIC-5 cells)
Method: as §3, §2

HIV-1 Q151Mc/K70N = test: as above
Method: as §3, §2

HIV-1 K70T = test: as above
Method: as §3, §2

HIV-1 K70Q = test: as above; details: Human immunodeficiency virus 1, MAGIC-5; K70Q
Method: as §3, §2

HIV-1 K70N = test: as above
Method: as §3, §2

HIV-1 K70G = test: as above
Method: as §3, §2

HIV-1 Q151Mc/K70R = test: as above
Method: as §3, §2

HIV-1 K70R = test: as above
Method: as §3, §2

HIV-1 Q151Mc = test: as above; details: Human immunodeficiency virus 1, MAGIC-5
Method: as §3, §2

HIV-1 Q151Mc/K70G = test: as above
Method: as §3, §2

HIV-1 K70E = test: as above
Method: as §3, §2

HIV-1 Q151Mc/K70Q = test: as above
Method: as §3, §2

HIV-1 Q151Mc/K70T = test: as above
Method: as §3, §2

Cc1ccnc2c1NC(=O)c1cccnc1N2C1CC1 [NVP, nevirapine]
EC50 [1]: > 10000 nM | EC50 (HIV-1 NL4-3 strain (WT)): 50 ± 4 nM | EC50 [2]: > 10000 nM

CC(C)OC(=O)OCOP(=O)(CO[C@H](C)Cn1cnc2c(N)ncnc21)OCOC(=O)OC(C)C [TFV-DF, tenofovir disoproxil fumarate]
EC50 [1]: 120 ± 20 nM | EC50 (HIV-1 WT): 20 ± 4 nM | EC50 (HIV-1 NL4-3 strain (WT)): 20 ± 3 nM | EC50 (HIV-1 Q151Mc/K70E; Human immunodeficiency virus 1, MAGIC-5, Q151Mc/K70E): 30 ± 1 nM | Fold increase in EC50 compared to HIV-1 Q151Mc (HIV-1 Q151Mc/K70E; Q151Mc/K70E vs Q151Mc): (0.8) fold | EC50 (HIV-1 Q151Mc/K70N; Human immunodeficiency virus 1, MAGIC-5, Q151Mc/K70N): 60 ± 4 nM | Fold increase in EC50 compared to HIV-1 Q151Mc (HIV-1 Q151Mc/K70N; Q151Mc/K70N vs Q151Mc): (1.5) fold | EC50 (HIV-1 K70T; Human immunodeficiency virus 1, MAGIC-5, K70T): 20 ± 3 nM | Fold increase in EC50 compared to HIV-1 WT (HIV-1 K70T; K70T vs WT): (1) fold | EC50 (HIV-1 K70Q): 30 ± 3 nM | EC50 (HIV-1 K70N; Human immunodeficiency virus 1, MAGIC-5, K70N): 20 ± 3 nM | Fold increase in EC50 compared to HIV-1 WT (HIV-1 K70N; K70N vs WT): (1) fold | EC50 (HIV-1 K70G; Human immunodeficiency virus 1, MAGIC-5, K70G): 20 ± 3 nM | Fold increase in EC50 compared to HIV-1 WT (HIV-1 K70G; K70G vs WT): (1) fold | EC50 (HIV-1 Q151Mc/K70R; Human immunodeficiency virus 1, MAGIC-5, Q151Mc/K70R): 30 ± 2 nM | Fold increase in EC50 compared to HIV-1 Q151Mc (HIV-1 Q151Mc/K70R; Q151Mc/K70R vs Q151Mc): (0.8) fold | EC50 (HIV-1 K70R; Human immunodeficiency virus 1, MAGIC-5, K70R): 20 ± 2 nM | Fold increase in EC50 compared to HIV-1 WT (HIV-1 K70R; K70R vs WT): (1) fold | EC50 (HIV-1 Q151Mc): 40 ± 3 nM | EC50 (HIV-1 Q151Mc/K70G; Human immunodeficiency virus 1, MAGIC-5, Q151Mc/K70G): 40 ± 2 nM | Fold increase in EC50 compared to HIV-1 Q151Mc (HIV-1 Q151Mc/K70G; Q151Mc/K70G vs Q151Mc): (1) fold | EC50 (HIV-1 K70E; Human immunodeficiency virus 1, MAGIC-5, K70E): 20 ± 3 nM | Fold increase in EC50 compared to HIV-1 WT (HIV-1 K70E; K70E vs WT): (1) fold | EC50 (HIV-1 Q151Mc/K70Q; Human immunodeficiency virus 1, MAGIC-5, Q151Mc/K70Q): 200 ± 10 nM | Resistance (fold less susceptible than WT HIV-1) (HIV-1 Q151Mc/K70Q; K70Q/Q151Mc vs WT HIV-1): 10 fold | EC50 (HIV-1 Q151Mc/K70T; Human immunodeficiency virus 1, MAGIC-5, Q151Mc/K70T): 50 ± 1 nM | Fold increase in EC50 compared to HIV-1 Q151Mc (HIV-1 Q151Mc/K70T; Q151Mc/K70T vs Q151Mc): (1.3) fold | EC50 [2]: 40 ± 10 nM
